Test results from patent US8633204B2 (Pfizer Inc., priority 2006, dated 2014).

Tests used:
[1] = tested on: PI3-K in BT20 cells (phosphorylation of AKT at serine 473); assay: PI3-Kα Cellular Assay (AKT Ser473 phosphorylation ELISA in BT20 cells); assay type: cell-based, human; conditions: Homo sapiens, BT-20, pAKT Ser473 ELISA, 1 hour incubation
How it was run: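 Cells seeded overnight in 0.5% FBS, then exposed 1 h at 37 °C to an 11-concentration 1:3 dilution series, in duplicate.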

[2] = target: PI3-Kα (Mus musculus (Mouse), UniProt P42337); assay: PI3-Kα Biochemical Assay (fluorescence polarization kinase assay)
How it was run: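 Co-expressed mouse p110/p85 PI3-Kα (4 nM stock) acting on PI(4,5)P2 (60 μM stock) with ATP/MgCl2 in HEPES pH 7.4 buffer, 35 min at room temperature, then EDTA stop. PI(3,4,5)P3 product detected by displacement of TAMRA-PIP3 from Grip1 PH domain (FP, 535/580 nm). IC50 from sigmoidal fit of % inhibition.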

Sequence of PI3-Kα (P42337 whole entry, the tested form may be a part): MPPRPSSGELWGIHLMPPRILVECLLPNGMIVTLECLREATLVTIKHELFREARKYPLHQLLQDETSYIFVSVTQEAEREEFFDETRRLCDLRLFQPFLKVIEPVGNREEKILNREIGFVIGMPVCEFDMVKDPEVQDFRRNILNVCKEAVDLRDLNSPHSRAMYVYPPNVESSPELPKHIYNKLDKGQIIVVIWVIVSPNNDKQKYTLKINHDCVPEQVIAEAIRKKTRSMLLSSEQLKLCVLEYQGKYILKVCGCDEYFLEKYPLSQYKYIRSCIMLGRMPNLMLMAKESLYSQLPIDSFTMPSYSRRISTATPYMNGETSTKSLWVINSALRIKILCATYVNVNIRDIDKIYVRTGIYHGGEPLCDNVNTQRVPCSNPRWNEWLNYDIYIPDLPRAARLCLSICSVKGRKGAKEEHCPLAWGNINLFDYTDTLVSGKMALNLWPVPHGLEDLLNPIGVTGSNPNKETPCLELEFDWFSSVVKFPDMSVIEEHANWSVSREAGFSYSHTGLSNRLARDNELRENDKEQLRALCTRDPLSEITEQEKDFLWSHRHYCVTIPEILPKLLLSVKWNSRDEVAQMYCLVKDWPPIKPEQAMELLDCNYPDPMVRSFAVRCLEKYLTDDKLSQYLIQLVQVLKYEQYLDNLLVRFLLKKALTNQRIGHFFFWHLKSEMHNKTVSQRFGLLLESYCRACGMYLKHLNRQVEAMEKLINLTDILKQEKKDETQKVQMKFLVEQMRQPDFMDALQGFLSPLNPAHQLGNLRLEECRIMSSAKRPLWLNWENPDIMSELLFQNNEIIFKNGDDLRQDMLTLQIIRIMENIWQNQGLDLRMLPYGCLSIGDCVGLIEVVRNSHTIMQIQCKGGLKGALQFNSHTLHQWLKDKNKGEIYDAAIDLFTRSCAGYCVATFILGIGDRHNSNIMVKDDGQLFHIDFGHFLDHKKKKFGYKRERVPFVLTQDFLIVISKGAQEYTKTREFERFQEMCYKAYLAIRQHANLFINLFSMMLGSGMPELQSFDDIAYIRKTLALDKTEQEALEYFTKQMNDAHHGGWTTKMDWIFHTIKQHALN
Sequence of PI3-Kα (P26450 whole entry partner, the tested form may be a part): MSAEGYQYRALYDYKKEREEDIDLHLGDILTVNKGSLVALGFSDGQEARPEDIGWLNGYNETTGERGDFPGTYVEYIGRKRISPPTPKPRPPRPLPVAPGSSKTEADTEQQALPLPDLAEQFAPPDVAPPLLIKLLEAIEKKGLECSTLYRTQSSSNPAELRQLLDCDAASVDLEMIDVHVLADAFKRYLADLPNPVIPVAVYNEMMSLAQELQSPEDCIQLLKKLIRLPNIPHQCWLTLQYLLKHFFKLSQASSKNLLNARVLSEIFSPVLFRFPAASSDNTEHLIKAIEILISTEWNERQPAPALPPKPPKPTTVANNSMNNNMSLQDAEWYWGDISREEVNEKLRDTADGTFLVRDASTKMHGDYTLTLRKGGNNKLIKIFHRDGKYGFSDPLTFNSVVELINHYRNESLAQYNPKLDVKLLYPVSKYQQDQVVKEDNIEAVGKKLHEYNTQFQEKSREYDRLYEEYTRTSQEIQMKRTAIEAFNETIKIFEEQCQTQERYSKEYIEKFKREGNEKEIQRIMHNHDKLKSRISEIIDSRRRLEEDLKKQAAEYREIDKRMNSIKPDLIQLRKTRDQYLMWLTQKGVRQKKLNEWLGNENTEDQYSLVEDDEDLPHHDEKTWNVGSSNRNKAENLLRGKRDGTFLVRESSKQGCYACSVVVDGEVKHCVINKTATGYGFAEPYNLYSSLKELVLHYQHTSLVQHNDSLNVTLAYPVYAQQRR

| Structure (SMILES) | IC50 [1] [nM] | IC50 [2] [nM] |
| --- | --- | --- |
| CNc1nc(C)c2cc(-c3cn[nH]c3)c(=O)n(CC3CCOC3)c2n1 (stereo not shown) [Compound 215, 4-methyl-2-(methylamino)-6-(1H-pyrazol-4-yl)-8-((tetrahydrofuran-3-yl)methyl)pyrido[2,3-d]pyrimidin-7(8H)-one] | 22.1 | 6 |
| Cc1nc(N)nc2c1cc(Br)c(=O)n2[C@H]1CC[C@@H](O)CC1 [Compound 168, 2-amino-6-bromo-8-(cis-4-hydroxycyclohexyl)-4-methylpyrido[2,3-d]pyrimidin-7(8H)-one] | 228 | 130 |
| COc1ccc(-c2cc3c(C)nc(N)nc3n([C@@H]3CC[C@H](O)C3)c2=O)cn1 [Compound 155, 2-amino-8-[(1R,3S)-3-hydroxycyclopentyl]-6-(6-methoxypyridin-3-yl)-4-methylpyrido[2,3-d]pyrimidin-7(8H)-one] | 82.9 | 11 |
| COc1ncc(-c2cc3c(C)nc(N)nc3n(C(C)C)c2=O)cn1 [Compound 266, 2-amino-8-isopropyl-6-(2-methoxypyrimidin-5-yl)-4-methylpyrido[2,3-d]pyrimidin-7(8H)-one] | 49.3 | 2.2 |
| Cc1nc(N)nc2c1cc(-c1cccc(CO)c1)c(=O)n2C1CCOCC1 [Compound 260, 2-amino-6-[3-(hydroxymethyl)phenyl]-4-methyl-8-(tetrahydro-2H-pyran-4-yl)pyrido[23-d]pyrimidin-7(8H)-one] | 33.2 | 3.9 |
| Cc1nc(N)nc2c1cc(-c1cn[nH]c1)c(=O)n2C1CCC(C)(O)CC1 (stereo not shown) [Compound 185, 2-amino-8-(4-hydroxy-4-methylcyclohexyl)-4-methyl-6-(1H-pyrazol-4-yl)pyrido[2,3-d]pyrimidin-7(8H)-one] | 15.2 | 18 |
| Cc1nc(N)nc2c1cc(-c1cnn(CC(F)F)c1)c(=O)n2C1CCCC1 [Compound 237, 2-Amino-8-cyclopentyl-6-[1-(2,2-drfluoro-ethyl)-1H-pyrazol-4-yl]-4-methyl 8H-pyrido[2,3-d]pyrimidin-7-one] | 397 | 12 |
| CNc1nc(C)c2cc(-c3ccc(OC)nc3)c(=O)n(CC3CCOC3)c2n1 (stereo not shown) [Compound 216, 6-(6-methoxypyridin-3-yl)-4-methyl-2-(methylamino)-8-((tetrahydrofuran-3-yl)methyl)pyrido[2,3-d]pyrimidin-7(8H)-one] | 45.6 | 4.6 |
| Cc1nc(N)nc2c1cc(-c1cn[nH]c1)c(=O)n2CC(F)(F)F [Compound 197, 2-amino-4-methyl-6-(1H-pyrazol-4-yl)-8-(2,2,2-trifluoroethyl)pyrido[2,3-d]pyrididin-7(8H)-one] | 236 | 188 |
| Cc1cc(-c2cc3c(C)nc(N)nc3n(C3CCCC3)c2=O)cnc1N(C)C [Compound 257, 2-amino-8-cyclopentyl-6-[6-(dimethylamino)-5-methylpyridin-3-yl]-4-methylpyrido[23-d]pyrimidin-7(8H)-one] | 23.1 | 11 |
| Cc1nc(N)nc2c1cc(-c1ccc(F)cc1)c(=O)n2CC(C)(C)O [Compound 170, 2-amino-6-(4-fluorophenyl)-8-(2-hydroxy-2-methylpropyl)-4-methylpyrido[2,3-d]pyrimidin-7(8H)-one] | 10000 | 3400 |
| Cc1nc(N)nc2c1cc(-c1cn[nH]c1)c(=O)n2[C@H]1CC[C@@H](OCCO)CC1 [Compound 296, 2-amino-8-[cis-4-(2-hydroxyethoxy)cyclohexyl]-4-methyl-6-(1H-pyrazol-4-yl)pyrido[2,3-d]pyrimidin-7(8H)-one] | 9.1 | 29.7 |
| Cc1nc(N)nc2c1cc(-c1cn[nH]c1)c(=O)n2C1CN(C(=O)OC(C)(C)C)C1 [Compound 226, tert-butyl 3-(2-amino-4-methyl-7-oxo-6-(1H-pyrazol-4-yl)pyrido[2,3-d]pyrimidin-8(7H)-yl)azetidine-1-carboxylate] | 41.5 | 120 |
| CCn1nccc1NC(=O)c1cc2c(C)nc(N)nc2n([C@H]2CC[C@H](O)CC2)c1=O [Compound 278, 2-amino-N-(1-ethyl-1H-pyrazol-5-yl)-8-(trans-4-hydroxycyclohexyl)-4-methyl-7-oxo-78-dihydropyrido[23-d]pyrimidine-6-carboxamide] | 50.5 | 1.3 |

More lines, in order of falling IC50 [1], values ahead:

| IC50 [1] [nM] | IC50 [2] [nM] | Structure (SMILES) |
| --- | --- | --- |
| 1020 | 94 | Cc1nc(N)nc2c1cc(Br)c(=O)n2CC1CCOC1 (stereo not shown) [Compound 218, 2-amino-6-bromo-4-methyl-8-((tetrahydrofuran-3-yl)methyl)pyrido[2,3-d]pyrimidin-7(8H)-one] |
| 622 | 168 | COc1cccc(-c2cc3c(C)nc(N)nc3n(C3CCCC3)c2=O)c1 [Compound 145, 2-amino-8-cyclopentyl-6-(3-methoxyphenyl)-4-methylpyrido[2,3-d]pyrimidin-7(8H)-one] |
| 556 | 62 | Cc1nc(N)nc2c1cc(-c1c[nH]nn1)c(=O)n2C(C)C [Compound 264, 2-Amino-8-isopropyl-4-methyl-6-(1H-1,2,3-triazol-4-yl)pyrido[2,3-d]pyrimidin-7(8H)-one] |
| 322 | 270 | Cc1nc(N)nc2c1cc(-c1cnc3ccccc3c1)c(=O)n2CC(C)(C)O [Compound 173, 2-amino-8-(2-hydroxy-2-methylpropyl)-4-methyl-6-quinolin-3-ylpyrido[2,3-d]pyrimidin-7(8H)-one] |
| 256 | 38 | Cc1nc(N)nc2c1cc(-c1cnc3[nH]ccc3c1)c(=O)n2C1CN(C(=O)OC(C)(C)C)C1 [Compound 228, tert-butyl 3-(2-amino-4-methyl-7-oxo-6-(1H pyrrolo[2,3-b]pyridin-5 yl)pyrido[2,3-d]pyrimidin-8(7H)-yl)azetidine-1-carboxylate] |
| 172 | 27 | COc1ccc(-c2cc3c(C)nc(N)nc3n(C3CCN(C(=O)OC(C)(C)C)C3)c2=O)cn1 (stereo not shown) [Compound 246, 3-[2-Amino-6-(6-methoxy-pyridin-3-yl)-4-methyl-7-oxo-7H-pyrido[2,3-d]pyrimidin 8-yl]-pyrrolidine-1-carboxylic acid tert-butyl ester] |
| 169 | 6.7 | Cc1nc(N)nc2c1cc(-c1cn[nH]c1)c(=O)n2[C@H]1CC[C@H](O)CC1 [Compound 156, 2-amino-8-(trans-4-hydroxycyclohexyl)-4-methyl-6-(1H-pyrazol-4-yl)pyrido(2,3-d]pyrimidin-7(8H)-one] |
| 146 | 29.7 | CNc1nc(C)c2cc(-c3ccc(Cl)nc3)c(=O)n(C3CCCC3)c2n1 [Compound 138, 6-(6-chloropyridin-3-yl)-8-cyclopentyl-4-methyl-2-(methylamino)pyrido[2,3-d]pyrimidin-7(8H)-one] |
| 106 | 17 | C=CCn1c(=O)c(-c2ccc(OC)nc2)cc2c(C)nc(NC)nc21 [Compound 110, 8-allyl-6-(6-methoxypyridin-3-yl)-4-methyl-2-(methylamino)pyrido[2,3-d]pyrimidin-7(8H)-one] |
| 95.2 | 21 | CNc1nc(C)c2cc(-c3ccc(OC)nc3)c(=O)n(C(C)C)c2n1 [Compound 113, 8-Isopropyl-6-(6-methoxypyridin-3-yl)-4-methyl-2-(methylamino)pyrido[2,3-c]pyrimidin-7(8H)-one] |
| 57.8 | 2.8 | Cc1nc(N)nc2c1cc(-c1cnc3[nH]ccc3c1)c(=O)n2CC1CCOC1 (stereo not shown) [Compound 221, 2-amino-4-methyl-6-(1H-pyrrolo[2,3-b]pyridin-5-yl)-8-((tetrahydrofuran-3-yl)methyl)pyrido[2,3-d]pyrimidin-7(8H)-one] |
| 50.8 | 10.2 | COc1ccc(-c2cc3c(C)nc(N)nc3n([C@H]3C[C@H](OCCO)C3)c2=O)cn1 [Compound 314, 2-amino-8-(trans-3-(2-hydroxyethoxy)cyclobutyl]-6-(6-methoxypyridin-3-yl)-4-methylpyrido[2,3-d]pyrimidin-7(8H)-one] |
| 36.6 | 5.4 | Cc1nc(N)nc2c1cc(-c1cnc3[nH]ccc3c1)c(=O)n2CC1CCCO1 (stereo not shown) [Compound 225, 2-amino-4-methyl-6-(1H-pyrrolo[2,3-b]pyridin-5-yl)-8-((tetrahydrofuran-2-yl)methyl)pyrido[2,3-d]pyrimidin-7(8H)-one] |
| 26.7 | 45 | COc1ncc(-c2cc3c(C)nc(N)nc3n(C3CCOCC3)c2=O)cn1 [Compound 259, 2-amino-6-(2-methoxypyrimidin-5-yl)-4-methyl-8-(tetrahydro-2H-pyran-4-yl)pyrido[23-d]pyrimidin-7(8H)-one] |
| 13.5 | 1.6 | CNc1nc(C)c2cc(-c3cnc4[nH]ccc4c3)c(=O)n(CC3CCOC3)c2n1 (stereo not shown) [Compound 217, 4-methyl-2-(methylamino)-6-(1H-pyrrolo[2,3-b]pyridin-5-yl)-8-((tetrahydrofuran-3-yl)methyl)pyrido[2,3-d]pyrimidin-7(8H)-one] |
| 10.1 | 6.2 | CO[C@H]1CC[C@H](n2c(=O)c(-c3ccc(N(C)C)nc3)cc3c(C)nc(N)nc32)CC1 [Compound 182, 2-amino-6-[6-(dimethylamino)pyridin-3-yl]-8-(trans-4-methoxycyclohexyl)-4-methylpyrido[2,3-d]pyrimidin-7(8H)-one] |
| 7.37 | 3.9 | COc1ccc(-c2cc3c(C)nc(N)nc3n([C@H]3CC[C@H](OC)CC3)c2=O)cn1 [Compound 179, 2-Amino-8-(trans-4-methoxycyclohexyl)-6-(6-methoxypyridin-3-yl)-4-methylpyrido[2,3-d]pyrimidin-7(8H)-one] |
| 4.84 | 0.524 | Cc1nc(N)nc2c1cc(-c1cccc(O)c1)c(=O)n2C1CCCC1 [Compound 147, 2-Amino-8-cyclopentyl-6-(3-hydroxyphenyl)-4-methylpyrido[2,3-d]pyrimidin-7(8H)-one] |
